Article PMC10714390, “Quinoline Compounds Targeting the c-Ring of ATP Synthase Inhibit Drug-Resistant Pseudomonas aeruginosa” (ACS Infectious Diseases, 2023)
Several values for one entry are separate records, joined by “and”; a condition that tells them apart may be missing. Equal entries are not always repeated.

Assays:
E. coli (ATCC 25922) = assay: Antimicrobial susceptibility (broth microdilution), EC 25922; type: cell-based, Escherichia coli; settings: for MIC: Escherichia coli, ATCC25922, read-out: antibacterial activity (MIC) EC 25922; for antibacterial activity in words, EC 25922: summary of Table 1
Description: (§1) The following are general steps, unless otherwise noted. All steps were completed using aseptic techniques. All media and glassware were sterilized via an autoclave at 121 °C for 60 min. All agitation occurred at 160 rpm in a temperature-controlled console shaker (Excella E25) at 37 °C. Full-strength tryptic soy broth (TSB) was made by dissolving 30 g of BD Bacto TSB powder in 1 L of deionized water. Purchased and acquired bacterial strains used were E. coli (ATCC 25922), P. aeruginosa (ATCC 9027), drug-resistant P. aeruginosa from ATCC Panel MP-23 (BAA 2108, BAA 2109, BAA 2110), and P. aeruginosa efflux knockout GKCW120 (PΔ6)[6] provided by Zgurskaya and co-workers at the University of Oklahoma.
(§2) Susceptibility testing was performed in biological triplicate using the broth microdilution method as outlined by the Clinical and Laboratory Standards Institute. […] Briefly, to each well, 1 μL of compound in DMSO, 89 μL of TSB, and 10 μL of bacterial inoculum, grown from a single colony in 10 mL of TSB for 4–6 h, were added. After incubation for 12–15 h at 37 °C, absorbance at 590 nm was read on a Biotek Synergy HTX Multimode plate reader. Data were processed by background subtracting the media absorbance and then normalizing the data to full bacterial growth with the vehicle only. MIC is defined as the lowest concentration of antibiotic or antibiotic/adjuvant combination that achieves ≥85% growth inhibition, which corresponds to no visible growth.
(§3) Initial antibacterial activity screen of compounds 4, 5, and S1-S6
(§4) Compounds 4, 5, and S1-S6 were screened for initial antibiotic activity against a susceptible laboratory strain of EC (designated EC 25922), and non-virulent, biofilm forming strain of PA (designated PA 9027), and PD6 (efflux knockout strain6) at 128 µg/mL in DMSO. Sterilization and Antimicrobial Susceptibility Assay procedures utilized were the same as described in the methods.
(§5) Table S1. Antibacterial activity screening results for compounds 4, 5, and S1-S6 at 128 µg/mL
(§6) Table S1. Antibacterial activity screening results for compounds 4, 5, and S1-S6 at 128 µg/mL.

[1] = tested on: P. aeruginosa (ATCC 9027); assay: Antimicrobial susceptibility (broth microdilution), PA 9027; type: cell-based, Pseudomonas aeruginosa; settings: for MIC: Pseudomonas aeruginosa, ATCC9027, read-out: antibacterial activity (MIC) PA 9027; for antibacterial activity in words, PA 9027: summary of Table 1
Description: as §1, §2, §3, §4, §5, §6

[2] = tested on: P. aeruginosa efflux knockout GKCW120 (PΔ6); assay: Antimicrobial susceptibility (broth microdilution), PΔ6 efflux knockout; type: cell-based, Pseudomonas aeruginosa; settings: for Antibacterial activity screening result, P∆6: at 128 µg/mL in DMSO; for antibacterial activity (MIC) PΔ6: n = 3, >85% reduction in growth at OD 590 nm; for antibacterial activity in words, PΔ6: summary of Table 1
Description: as §1, §2, §3, §4, §5, §6

[3] = tested on: drug-resistant P. aeruginosa BAA 2109; assay: Antimicrobial susceptibility (broth microdilution), BAA 2109; type: cell-based, Pseudomonas aeruginosa; settings: for MIC: Pseudomonas aeruginosa, BAA2109, read-out: antibacterial activity (MIC) BAA 2109; for antibacterial activity in words, BAA 2109: summary of Table 1
Description: as §1, §2

[4] = molecular target: T1, PA ATP synthase expressed in E. coli DK8/pASH20 (Pseudomonas aeruginosa, UniProt Q9HT15); assay: NADH-driven ATP synthesis inhibition, DK8/pASH20 membrane vesicles; type: biochemical; settings: for IC50: ATP synthesis IC50, DK8/pASH20 vesicles, wild-type PA ATP synthase in E. coli DK8, NADH-driven, end point luminescence assay; for Hill coefficient of dose response fit, DK8/pASH20 vesicles: inhibition of ATP synthesis activity
T1 construct: expressed in transfected cells; host or cells: E. coli K-12 DK8 (lacks its own ATP synthase) transformed with pASH20 (pBR322 derivative)
Description: P. aeruginosa (ATCC 9027) was streaked onto a 10% TSB agar plate and incubated at room temperature for 72 h. A single colony was resuspended in 100 μL of H2O, and 5 μL was used as the DNA template for PCR with Q5 polymerase (NEB) and […] each of forward and reverse primers. Primers were complementary to regions flanking the atp operon and included sequences for HindIII and NdeI restriction sites (see the SI for primer sequences). The resulting 6.9 kbp DNA fragment was digested with HindIII and NdeI and ligated into digested vector pBR322 (New England Biolabs). The resultant pASH20(-i) plasmid contains a partial atpI gene. To complete the atpI gene, the HindII-XhoI fragment of pASH20(-i) was replaced with a synthetic fragment with a complete atpI (Twist Bioscience) to yield pASH20. The sequence of the entire operon was verified by Sanger DNA sequencing through the ligation sites. Subunit c mutations were introduced by exchanging the XhoI-BamHI fragment containing atpE with a synthetic fragment containing mutated atpE (Twist Bioscience).
Vesicles were prepared from P. aeruginosa and transformed E. coli cells as previously described.[22] Briefly, cells were grown in LB liquid medium at 37 °C with shaking and harvested by centrifugation after 7 h of growth. Cultures of transformant E. coli included 100 μg/mL ampicillin. Cells were disrupted in TMG buffer (50 mM Tris-HCl, MgCl2, 10% (v/v) glycerol, pH 7.5) using an Avestin B15 homogenizer at 19,000 psi. After unbroken cells and debris were cleared by centrifugation at 9000g, inverted vesicles were collected by centrifugation at 193,000g, resuspended in TMG buffer, and stored at −80 °C. Protein concentrations were determined using a modified Lowry assay.[25]
(§7) Continuous ATP synthesis activity of inverted membrane vesicles was measured using a luciferin/luciferase luminescence assay as previously described.[22] Inhibition of ATP synthesis activity by test compounds was determined using an end point assay essentially as previously described.[18],[26] In this assay, the synthesis reaction was initiated by 2.5 mM NADH, proceeded for 10 min, and was stopped with 1% trichloroacetic acid, 2 mM CCCP, and 10 mM EDTA. Samples from each reaction were diluted 500-fold prior to the addition of luciferase since quinoline compounds are known to inhibit luciferase.[27] This dilution was sufficient to minimize inhibition of luciferase (Figure S4). Each replicate set included a positive control containing DMSO with no compound and a negative control containing carbonyl cyanide m-chlorophenyl hydrazone. Luminescence values were corrected for the background by subtracting the negative control and then normalized to the positive control within the same replicate. Dose–response curves were fit using eq 1, where activity is the relative ATP synthesis activity, [I] is the concentration of inhibitor in μg/mL, and n is the Hill coefficient. [drawing 1] 1

luciferase = luciferase (Photinus pyralis, UniProt P08659); assay: Inhibition of luciferase by quinoline compounds; type: biochemical; settings: after 500-fold dilution; Figure S4
Description: as §7
Table S2: All IC50 values and Hill coefficients for dose response fits of inhibition of ATP synthesis activity. […]
luciferase) at the indicated concentrations, and luminescence was measured after the addition of ATP to […]

Sequence of luciferase (P08659 whole entry): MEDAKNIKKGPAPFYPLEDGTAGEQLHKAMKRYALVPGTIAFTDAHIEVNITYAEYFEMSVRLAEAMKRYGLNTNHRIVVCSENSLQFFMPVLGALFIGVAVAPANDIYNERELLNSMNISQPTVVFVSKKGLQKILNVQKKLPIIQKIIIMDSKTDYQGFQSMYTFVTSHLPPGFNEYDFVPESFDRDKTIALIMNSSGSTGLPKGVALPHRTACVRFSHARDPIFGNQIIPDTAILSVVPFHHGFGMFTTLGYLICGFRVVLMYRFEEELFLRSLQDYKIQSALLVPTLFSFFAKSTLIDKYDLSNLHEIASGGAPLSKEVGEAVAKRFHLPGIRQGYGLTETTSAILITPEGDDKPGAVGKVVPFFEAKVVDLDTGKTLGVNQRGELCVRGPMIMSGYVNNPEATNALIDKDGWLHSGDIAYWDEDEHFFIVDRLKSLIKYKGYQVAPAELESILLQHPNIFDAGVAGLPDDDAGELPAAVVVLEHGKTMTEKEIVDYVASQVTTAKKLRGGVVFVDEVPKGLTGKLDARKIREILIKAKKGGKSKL

SMILES	MIC (E. coli (ATCC 25922)) [mg/L]	antibacterial activity in words, EC 25922 (E. coli (ATCC 25922))	MIC [1] [mg/L]	antibacterial activity in words, PA 9027 [1]	Antibacterial activity screening result, P∆6 [2]	antibacterial activity (MIC) PΔ6 [2] [mg/L]	antibacterial activity in words, PΔ6 [2]	MIC [3] [mg/L]	antibacterial activity in words, BAA 2109 [3]	IC50 [4]	Hill coefficient of dose response fit, DK8/pASH20 vesicles [4]	inhibition of luciferase, in words (luciferase)	Antibacterial activity screening result, EC 25922 (E. coli (ATCC 25922); at 128 µg/mL in DMSO)
CSc1nc2ccccc2cc1CNCc1ccc(CN(C)C)cc1 [Compound 4, N,N-Dimethyl-1-(4-((((2-(methylthio)quinolin-3-yl)methyl)amino)methyl)phenyl)methanamine]	256	weakly inhibit	> 256	inactive	I	64 to 128	weakly inhibit	256	able to inhibit	86.2 µM and 85.3 µM	1.0	did not significantly inhibit	–
CN(C)Cc1ccc(CNCc2cc3ccccc3nc2SCc2ccccc2)cc1 [Compound 5, 1-(4-((((2-(Benzylthio)quinolin-3-yl)methyl)amino)methyl)phenyl)-N,N-dimethylmethanamine]	64	more potent	> 128	inactive	I	16	more potent	> 128	inactive	5.38 µM	1.3	did not significantly inhibit	I
